# pIC50: −log10 of the molar value.
# How the values were obtained:
# [1] = system: human hematological malignancy-derived cell lines; assay: Cell viability / antiproliferative activity by CellTiter Glo; format: cell-based; conditions: in 7 of the 10 lines tested, 24 hours of exposure
# Description: Figure 3 Effect of GFH009 on cell proliferation in assorted human hematologic malignancy cell lines. Cell viability IC50s for GFH009 on human hematological malignancy-derived cell lines after 24 hours of exposure to the agent were determined using CellTiter Glo.
# The antiproliferative activity of GFH009 was assessed in cultured cell lines derived from human hematological malignancies over a period of 24-hour in vitro assay readouts. Enitociclib was used as a comparator for experimental validation (provided by MedChem Express, Monmouth, NJ, USA). Cell growth was analyzed by CellTiter Glo in 96-well plates and detected via chemiluminescent signal. The absolute inhibitory concentration of 50% (AbsIC50 values of the drug were calculated by fitting the drug inhibition rate curve with the “log (inhibitor) versus response – variable slope (4 parameters)” model by using the Prism GraphPad 6 for Windows v6.01 software.
# MV-4-11 cells = assay: Western blot of CDK9-regulated signaling in cultured cells; format: cell-based, human; conditions: 4-hour incubation
# Description: Figure 4 Effect of GFH009 on CDK9-dependent gene expression in cells. Western blot of MV-4-11 cells after exposure to different concentrations of GFH009 or Enitociclib for 4 hours was analyzed. A representative blot was shown from 3 independent experiments.
# The effect of GFH009 on CDK9-regulated signaling pathways in human hematological malignancy cell lines was assessed via western blot. Cultured MV-4-11 cells, derived from human blastic AML cells (ATCC), were incubated at 37°C and 5% CO2 for 4 hours at final concentrations of 1 μM, 0.3 μM, 0.1 μM, 0.03 μM, and 0.01 μM for both GFH009 and enitociclib. Protein isolates were collected from pelleted cells as previously described, semi-quantified via western blot and analyzed using Image Studio 5.0 (LI-COR Biosciences, Lincoln, NE, USA).
# [2] = Body weight change in MV-4-11 xenograft mice; format: in vivo, female BALB/c nude mice; conditions: all GFH009 treatment groups; through Day 28
# Description: Figure 7 Effect of GFH009 on body weight change in MV-4-11 xenografts. Body weight change of MV-4-11 xenograft (Figure 6) are expressed as mean ± SEM. ^* […], ^** P < 0.01, ^**** P < 0.0001, two-way ANOVA with Dunnett’s multiple comparisons test analysis compared to the vehicle-treated (control) group.
# Animals dosed BIW were given treatments on 2 consecutive days. Weights were recorded for each mouse every day and tumor volumes assessed 3 times a week. Total treatment administration occurred across 3 consecutive weeks.
# Relative change in body weight (RCBW) was determined as RCBW (%) = (Bwi – BW0)/BW0 × 100, where Bwi is body weight of a given mouse on a given day, and BW0 is initial body weight on the day they were assigned to a treatment group.
structure (smiles),measurement,setting,value
COC[C@@H](C)NC1CCC(Nc2cc(-c3csc(NCC4(C#N)CCOCC4)n3)c(Cl)cn2)CC1 (stereo partly drawn) [GFH009],pIC50,[1],> 6.70
same,Expression levels of MCL-1 and c-Myc,"MV-4-11 cells; 0.01-1 μM, western blot",dose-dependently decreased
same,Expression level of phospho-Rpb1 CTD Ser2,"MV-4-11 cells; increasing concentration, western blot",gradually decreased
same,Expression levels of phospho-Rpb1 CTD Ser5 and total Rpb1,MV-4-11 cells; vs DMSO-only control,not significantly different
same,Concentration inducing cleavage of caspase-3 and PARP,MV-4-11 cells; western blot,greater than 0.1 μM
same,Relative change in body mass (RCBW%) vs initial,[2],≤ 5%
